Molecular target: wt human LRRK2, catalytic site (Homo sapiens (Human), UniProt Q5S007)
Experiment: TR-FRET LanthaScreen Tb Kinase Activity Assay (LRRK2 kinase inhibition)
Assay type: biochemical
Conditions: 2 nM wt human LRRK2, 400 nM fluorescein-ERM (LRRKtide) peptide, 38 μM ATP, 120 minutes at room temperature
Method in brief: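 LanthaScreen TR-FRET with 2 nM wt human LRRK2 catalytic site, 400 nM fluorescein-ERM (LRRKtide) peptide and 38 µM ATP in Kinase Buffer A; 120 min at room temperature. Phosphorylation detected with EDTA and Tb-anti-pLRRKtide after 60 min; IC50 from emission ratios.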

wt human LRRK2, catalytic site, sequence (Q5S007 1879-2138): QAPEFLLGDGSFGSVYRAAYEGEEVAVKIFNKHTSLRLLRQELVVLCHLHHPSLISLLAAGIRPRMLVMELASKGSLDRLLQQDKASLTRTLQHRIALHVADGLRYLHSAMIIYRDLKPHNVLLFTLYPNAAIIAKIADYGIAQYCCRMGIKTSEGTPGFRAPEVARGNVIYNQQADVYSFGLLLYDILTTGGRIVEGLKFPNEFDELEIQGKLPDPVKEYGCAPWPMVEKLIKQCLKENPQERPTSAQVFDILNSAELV

SMILES: CNc1nc(Nc2cc3[nH]ncc3cc2OC(F)(F)F)ncc1C(F)(F)F [Example 129, N4-methyl-N2-[5-(trifluoromethoxy)-1H-indazol-6-yl]-5-(trifluoromethyl) pyrimidine-2,4-diamine]
- IC50: < 50 nM

SMILES: CNc1nc(Nc2ccc(CCC(=O)N3CCOCC3)c3c2cnn3C)ncc1C(F)(F)F [Example 58, 3-(1-methyl-4-((4-(methylamino)-5-(trifluoromethyl)pyrimidin-2-yl)amino)-1H-indazol-7-yl)-1-morpholinopropan-1-one]
- IC50: < 50 nM

SMILES: CNc1nc(Nc2cc(Cl)cc3c2cnn3CC#N)ncc1C(F)(F)F [Example 92, 2-(6-chloro-4-((4-(methylamino)-5-(trifluoromethyl)pyrimidin-2-yl)amino)-1H-indazol-1-yl)acetonitrile]
- IC50: < 50 nM

SMILES: CNc1nc(Nc2cccc3c2cnn3C)ncc1C(F)(F)F [Example 29, N4-methyl-N2-(1-methyl-1H-indazol-4-yl)-5-(trifluoromethyl)pyrimidine-2,4-diamine]
- IC50: < 50 nM

SMILES: CS(=O)(=O)n1ncc2c(Nc3ncc(C(F)(F)F)c(NC4CC4)n3)cccc21 [Example 102, N4-cyclopropyl-N2-(1-(methylsulfonyl)-1H-indazol-4-yl)-5-(trifluoromethyl)pyrimidine-2,4-diamine]
- IC50: < 50 nM

SMILES: CC(C)(C#N)Cn1ncc2c(Nc3ncc(C(F)(F)F)c(NC4CC4)n3)cccc21 [Example 200, 3-[4-[[4-(cyclopropylamino)-5-(trifluoromethyl)pyrimidin-2-yl]amino]indazol-1-yl]-2,2-dimethyl-propanenitrile]
- IC50: < 50 nM

SMILES: N#CCn1ncc2c(Nc3ncc(C(F)(F)F)c(NC4CCCC4)n3)cccc21 [Example 95, 2-(4-((4-(cyclopentylamino)-5-(trifluoromethyl)pyrimidin-2-yl)amino)-1H-indazol-1-yl)acetonitrile]
- IC50: < 50 nM

SMILES: CC(C)(C#N)n1ncc2c(Nc3ncc(C(F)(F)F)c(NC4CC(O)C4)n3)cccc21 (centres unmarked) [Example 157, 2-[4-[[4-[(3-hydroxycyclobutyl)amino]-5-(trifluoromethyl)pyrimidin-2-yl]amino]indazol-1-yl]-2-methyl-propanenitrile]
- IC50: < 50 nM

SMILES: CC(C)S(=O)(=O)n1ncc2c(Nc3ncc(C(F)(F)F)c(NC4CC4)n3)cccc21 [Example 135, N^4-cyclopropyl-N^2-(1-isopropylsulfonylindazol-4-yl)-5-(trifluoromethyl) pyrimidine-2,4-diamine]
- IC50: < 50 nM

SMILES: CCNc1nc(Nc2cccc3c2cnn3CC(F)F)nc2[nH]cc(Cl)c12 [Example 147, 5-chloro-N^2-(1-(2,2-difluoroethyl)-1H-indazol-4-yl)-N^4-ethyl-7H-pyrrolo[2,3-d]pyrimidine-2,4-diamine]
- IC50: < 50 nM

SMILES: CNc1nc(Nc2ccc(C(C)CC(=O)N3CCOCC3)c3c2cnn3C)ncc1C(F)(F)F (centres unmarked) [Example 60, 3-(1-methyl-4-((4-(methylamino)-5-(trifluoromethyl)pyrimidin-2-yl)amino)-1H-indazol-7-yl)-1-morpholinobutan-1-one]
- IC50: < 50 nM

SMILES: CC(C)(C#N)n1ncc2c(Nc3ncc(C(F)(F)F)c(NCCF)n3)cccc21 [Example 144, 2-(4-((4-((2-fluoroethyl)amino)-5-(trifluoromethyl)pyrimidin-2-yl)amino)-1H-indazol-1-yl)-2-methylpropanenitrile]
- IC50: < 50 nM

SMILES: CNc1nc(Nc2ccc3[nH]ncc3c2)ncc1C(F)(F)F [Example 72, N2-(1H-indazol-5-yl)-N4-methyl-5-(trifluoromethyl)pyrimidine-2,4-diamine]
- IC50: < 50 nM

SMILES: Cn1ncc2c(Nc3ncc(Cl)c(NC4CC4)n3)cccc21 [Example 71, 5-chloro-N4-cyclopropyl-N2-(1-methyl-1H-indazol-4-yl)pyrimidine-2,4-diamine]
- IC50: < 50 nM

SMILES: CC(C)S(=O)(=O)CCn1ncc2c(Nc3ncc(C(F)(F)F)c(NC4CC4)n3)cccc21 [Example 194, N4-cyclopropyl-N^2-(1-(2-(isopropylsulfonyl)ethyl)-1H-indazol-4-yl)-5-(trifluoromethyl)pyrimidine-2,4-diamine]
- IC50: < 50 nM

SMILES: CNc1nc(Nc2ccc(CC#N)c3c2cnn3C)ncc1C(F)(F)F [Example 55, 2-(1-methyl-4-((4-(methylamino)-5-(trifluoromethyl)pyrimidin-2-yl)amino)-1H-indazol-7-yl)acetonitrile]
- IC50: < 50 nM

SMILES: CC(C)(C#N)n1ncc2c(Nc3ncc(C(F)(F)F)c(NC4CCC4)n3)cccc21 [Example 113, 2-(4-((4-(cyclobutylamino)-5-(trifluoromethyl)pyrimidin-2-yl)amino)-1H-indazol-1-yl)-2-methylpropanenitrile]
- IC50: < 50 nM

SMILES: CNc1nc(Nc2cccc3c2CC(=O)N3)ncc1C(F)(F)F [Example 127, 4-[[4-(methylamino)-5-(trifluoromethyl)pyrimidin-2-yl]amino]indolin-2-one]
- IC50: < 50 nM

SMILES: CNc1nc(Nc2cc3[nH]ncc3cc2C(F)(F)F)ncc1C(F)(F)F [Example 123, N^4-methyl-5-(trifluoromethyl)-N^2-[5-(trifluoromethyl)-1H-indazol-6-yl]pyrimidine-2,4-diamine]
- IC50: ≥ 200 nM

SMILES: CC1(Nc2nc(Nc3cccc4c3cnn4CCS(C)(=O)=O)ncc2C(F)(F)F)CC1 [Example 191, N^4-(1-methylcyclopropyl)-N^2-(1-(2-(methylsulfonyl)ethyl)-1H-indazol-4-yl)-5-(trifluoromethyl)pyrimidine-2,4-diamine]
- IC50: < 50 nM

SMILES: CN(C)c1nc(Nc2cccc3c2cnn3CC#N)ncc1C(F)(F)F [Example 107, 2-(4-((4-(dimethylamino)-5-(trifluoromethyl)pyrimidin-2-yl)amino)-1H-indazol-1-yl)acetonitrile]
- IC50: < 50 nM

SMILES: CNc1nc(Nc2cccc3c2cnn3C(C)(C)C#N)ncc1C(F)(F)F [Example 31, 2-methyl-2-(4-((4-(methylamino)-5-(trifluoromethyl)pyrimidin-2-yl)amino)-1H-indazol-1-yl)propanenitrile]
- IC50: < 50 nM

SMILES: CNc1nc(Nc2cn(C)c3ncncc23)ncc1C(F)(F)F [Example 125, 4-methyl-N2(7-methylpyrrolo[2,3-d]pyrimidin-5-yl)-5-(trifluoromethyl) pyrimidine-2,4-diamine]
- IC50: < 50 nM

SMILES: CNc1nc(Nc2ccc(C3CCOCC3)c3c2cnn3CC#N)ncc1C(F)(F)F [Example 89, 2-(4-((4-(methylamino)-5-(trifluoromethyl)pyrimidin-2-yl)amino)-7-(tetrahydro-2H-pyran-4-yl)-1H-indazol-1-yl)acetonitrile]
- IC50: < 50 nM

SMILES: CS(=O)(=O)CCn1ncc2c(Nc3nc(NC4CC4)c4c(Cl)c[nH]c4n3)cccc21 [Example 203, 5-chloro-N^4-cyclopropyl-N^2-(1-(2-(methylsulfonyl)ethyl)-1H-indazol-4-yl)-7H-pyrrolo[2,3-d]pyrimidine-2,4-diamine]
- IC50: < 50 nM

SMILES: Cc1n[nH]c2nc(Nc3cccc4c3cnn4CCS(C)(=O)=O)nc(NC3CC3)c12 [Example 182, N^4-cyclopropyl-3-methyl-N^6-[1-(2-methylsulfonylethyl)indazol-4-yl]-1H-pyrazolo[3,4-d]pyrimidine-4,6-diamine]
- IC50: < 50 nM

SMILES: CNc1nc(Nc2cccc3[nH]nc(C)c23)ncc1C(F)(F)F [Example 48, N4-methyl-N2-(3-methyl-1H-indazol-4-yl)-5-(trifluoromethyl)pyrimidine-2,4-diamine]
- IC50: 50 to 200 nM

SMILES: CNc1nc(Nc2ccc(C3CCOCC3)c3c2cnn3C)ncc1C(F)(F)F [Example 88, N4-methyl-N2-(1-methyl-7-(tetrahydro-2H-pyran-4-yl)-1H-indazol-4-yl)-5-(trifluoromethyl)pyrimidine-2,4-diamine]
- IC50: < 50 nM

SMILES: CCNc1nc(Nc2cccc3c2cnn3CC(C)(C)O)ncc1C(F)(F)F [Example 164, 1-[4-[[4-(ethylamino)-5-(trifluoromethyl)pyrimidin-2-yl]amino]indazol-1-yl]-2-methyl-propan-2-ol]
- IC50: < 50 nM

From US20240174647A1 (NEURON23, INC., priority 2022, published 2024)
